Measured values as given in EP0314038A1, “Pyrrolidines” (Byk Gulden Lomberg Chemische Fabrik GmbH, priority 1987, dated 1989).
Counter-ions that a name gives are not always drawn.

Test system: spontan hypertonen Ratte
Experiment: antihypertensive effect (systolic blood pressure, tail cuff) in spontaneously hypertensive rats after oral administration
Type: in vivo
Conditions: genetically hypertensive rats (SHR/N/Ibm/Bm), N=6; for BP (% Änderung vs. Kontrolle), Mittelwert für Meßzeitpunkte: Stunden nach Gabe (Tage) 2h (1.+4.Tag): 2h after dosing, mean of days 1+4; for BP (% Änderung vs. Kontrolle), Mittelwert für Meßzeitpunkte: Stunden nach Gabe (Tage) 6h (1.-4.Tag): 6h after dosing, mean of days 1-4
Description: Die antihypertensive Wirksamkeit der erfindungsgemäßen Verbindungen kann am Modell der spontan hypertonen Ratte nachgewiesen werden.
Zur Bestimmung der antihypertensiven Wirkung werden die unten aufgeführten Verbindungen in den angegebenen Dosen an vier aufeinander folgenden Tagen an je 6 männlichen Ratten (Stamm SHR/N/Ibm/Bm, 250-350 g) mit genetisch bedingtem Hochdruck (systolischer Blutdruck > 180 mmHg) täglich einmal mittels Schlundsonde verabfolgt. Die Messung des Blutdrucks erfolgt jeweils 6 und gegebenenfalls 2 oder 24 Stunden nach Substanzgabe.
Die Blutdruckmessung wird in einer Wärmekammer bei 36°C vorgenommen, um eine bessere Durchblutung der Schwanzarterie zu erreichen. Hierzu werden die Tiere in perforierte Lochblechkäfige verbracht und 20 - 40 Min. nach Beginn der Aufwärmung gemessen. Zur Messung des systolischen arteriellen Drucks wird eine ringförmige Manschette mit aufblasbarer Gummimembran zur Unterbindung der Durchblutung und ein ringförmiger Piezokristallaufnehmer zur Erfassung der Pulswellen auf den Schwanz aufgeschoben. Nach erfolgter Unterbindung des Blutstroms in der Schwanzarterie wird der Manschettendruck kontinuierlich reduziert. Die Wiederkehr der Pulswellen bei Druckablassen wird automatisch als systolischer Blutdruck erkannt und ausgedruckt (Bühler, R. et al.,: Microprocessor-based automation of blood pressure measurement in the conscious rat. Proceedings of the 4th international symposium on rats with spontaneous hypertension and related studies, Rascher, R. et al. (Eds.), Schattauer Verlag, Stuttgart, New York, 1982, S. 410-413). Pulssignale und Druckverlauf werden zur Auswertung graphisch aufgezeichnet.
Zur Gewöhnung an den Meßvorgang werden die Tiere vor Substanzprüfung 14 Tage trainiert. In der zweiten Trainingswoche werden Blutdruck-Vorwerte erhoben. Tiergruppen, die Substanz erhalten, werden gegen eine Kontrollgruppe geprüft.
In der anscließenden Tabelle werden die untersuchten Verbindungen durch laufende Nummern gekennzeichnet, die mit den jeweiligen Beispielnummern übereinstimmen.
Tabelle I gibt für die Vertreter der erfindungsgemäßen Verbindungen die prozentuale Senkung des Blutdrucks (BP) nach oraler Verabreichung bei der Ratte wieder. Tabelle I

[1] = 25 µmol/kg p.o. once daily on four consecutive days
[2] = 10 µmol/kg p.o. once daily on four consecutive days

Structure (SMILES) | BP (% Änderung vs. Kontrolle), Mittelwert für Meßzeitpunkte: Stunden nach Gabe (Tage) 2h (1.+4.Tag) [1] | BP (% Änderung vs. Kontrolle), Mittelwert für Meßzeitpunkte: Stunden nach Gabe (Tage) 6h (1.-4.Tag) [1] | BP (% Änderung vs. Kontrolle), Mittelwert für Meßzeitpunkte: Stunden nach Gabe (Tage) 24h (1.+3.Tag) (25 µmol/kg p.o. once daily on four consecutive days, 24h after dosing, mean of days 1+3) | BP (% Änderung vs. Kontrolle), Mittelwert für Meßzeitpunkte: Stunden nach Gabe (Tage) 2h (1.+4.Tag) [2] | BP (% Änderung vs. Kontrolle), Mittelwert für Meßzeitpunkte: Stunden nach Gabe (Tage) 6h (1.-4.Tag) [2]
CCOC(=O)C1=C(C)NC(C)=C(C(=O)OCCCN2CCCC2Cc2ccc(Cl)cc2)C1c1cccc([N+](=O)[O-])c1 (racemic) [Beispiel 1, 1,4-Dihydro-2,6-dimethyl-4-(±)-(3-nitrophenyl)-pyridin-3,5-dicarbonsäure-3-ethyl-5-{3-[2-(±)-(4-chlorbenzyl)-pyrrolidinyl-1]-propyl}-ester-hydrochlorid] | -55,5% | -43,5% | – | – | –
COC(=O)C1=C(C)NC(C)=C(C(=O)OCCCN2CCCC2Cc2ccc(Cl)cc2)C1c1cccc([N+](=O)[O-])c1 (racemic) [Beispiel 2, 1,4-Dihydro-2,6-dimethyl-4-(±)-(3-nitrophenyl)-pyridin-3,5-dicarbonsäure-3-methyl-5-{3-[2-(-)-(4-chlorbenzyl)-pyrrolidinyl-1]-propyl}-ester-hydrochlorid] | -47% | -34% | -13,5% | – | –
COC(=O)C1=C(C)NC(C)=C(C(=O)OCCCN2CCCC2Cc2ccc(Cl)cc2)C1c1cccc(Cl)c1Cl (racemic) [Beispiel 8, 1,4-Dihydro-2,6-dimethyl-4-(±)-(2,3-dichlorphenyl)-pyridin-3,5-dicarbonsäure-3-methyl-5-{3-[2-(-)-(4-chlorbenzyl)-pyrrolidinyl-1]-propyl}-ester-hydrochlorid] | – | – | – | -39% | -25,5%
COC(=O)C1=C(C)NC(C)=C(C(=O)OCCCN2CCCC2Cc2ccc([N+](=O)[O-])cc2)C1c1cccc([N+](=O)[O-])c1 (racemic) [Beispiel 11, 1,4-Dihydro-2,6-dimethyl-4-(+)-(3-nitrophenyl)-pyridin-3,5-dicarbonsäure-3-methyl-5-{3-[2-(±)-(4-nitrobenzyl)-pyrrolidinyl-1]-propyl}-ester-hydrochlorid] | -36,5% | -25,5% | – | – | –
COC(=O)C1=C(C)NC(C)=C(C(=O)OCCCN2CCCC2Cc2ccc(Cl)cc2)C1c1cccc([N+](=O)[O-])c1 (single isomer, unassigned) [Beispiel 4, 1,4-Dihydro-2,6-dimethyl-4-(+)-(3-nitrophenyl)-pyridin-3,5-dicarbonsäure-3-methyl-5-{3-[2-(-)-(4-chlorbenzyl)-pyrrolidinyl-1]-propyl}-ester-hydrochlorid] | – | – | – | -48% | -33%
